In patent US10513521B2, “Compositions and methods for inhibiting BMP” (The Brigham and Women's Hospital, Inc., priority 2014, dated 2019):
Where a chain is given by its changes, count along the chain named. pIC50: −log10 of the molar value.

How the values were obtained:
[1] = Cell-based assay, TGFb1 (Cell IC50)
ALK2 [2] = target: T1, ALK2 (Mus musculus, UniProt P37172); experiment: HTRF pSMAD1 cell-based ALK2 assay (C2C12 cells, BMP6 as agonist); conditions: cell-based assay, BMP6; read-out: Cell IC50 BMP6
T1 construct: The C2C12 cell line was selected for the measurement of ALK2 activity using BMP6 as the agonist; host or cells: C2C12
T1 sequence (P37172 21-509): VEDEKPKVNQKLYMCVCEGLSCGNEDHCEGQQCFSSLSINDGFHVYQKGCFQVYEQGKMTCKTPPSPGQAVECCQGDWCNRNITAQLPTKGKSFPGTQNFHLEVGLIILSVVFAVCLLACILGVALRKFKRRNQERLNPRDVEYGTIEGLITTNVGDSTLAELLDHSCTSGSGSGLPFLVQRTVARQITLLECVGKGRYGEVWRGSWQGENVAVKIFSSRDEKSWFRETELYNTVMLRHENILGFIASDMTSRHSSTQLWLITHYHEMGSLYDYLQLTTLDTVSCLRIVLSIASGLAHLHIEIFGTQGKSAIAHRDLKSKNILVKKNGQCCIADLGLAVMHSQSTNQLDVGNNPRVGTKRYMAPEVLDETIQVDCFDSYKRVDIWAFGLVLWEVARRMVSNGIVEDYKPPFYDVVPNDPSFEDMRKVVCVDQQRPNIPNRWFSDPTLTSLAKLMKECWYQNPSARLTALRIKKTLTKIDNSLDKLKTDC
How it was run: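 Cells pre-starved, plated in 0.1% FBS medium for 4 h, compound added for 30 min, then stimulated 30 min with BMP9 (BAOEC) or BMP6 (C2C12). Phospho-SMAD1 measured by HTRF after overnight room-temperature detection incubation.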

ALK1 = ALK1 (Homo sapiens, UniProt P37023); experiment: TR-FRET enzymatic ALK kinase assay, ALK1
Protocol: (§1) Briefly, the ALKs enzymatic assay was initiated by dispense 2.5 μl enzyme in 1× kinase reaction buffer. The assay plate was then added with compounds followed by incubation at room temperature for 10 minutes. Then 2.5 μl/well substrate was added.

ALK5 = target: T2, ALK5 (Homo sapiens, UniProt P36897); experiment: TR-FRET enzymatic ALK kinase assay, ALK5
T2 sequence (P36897 34-503): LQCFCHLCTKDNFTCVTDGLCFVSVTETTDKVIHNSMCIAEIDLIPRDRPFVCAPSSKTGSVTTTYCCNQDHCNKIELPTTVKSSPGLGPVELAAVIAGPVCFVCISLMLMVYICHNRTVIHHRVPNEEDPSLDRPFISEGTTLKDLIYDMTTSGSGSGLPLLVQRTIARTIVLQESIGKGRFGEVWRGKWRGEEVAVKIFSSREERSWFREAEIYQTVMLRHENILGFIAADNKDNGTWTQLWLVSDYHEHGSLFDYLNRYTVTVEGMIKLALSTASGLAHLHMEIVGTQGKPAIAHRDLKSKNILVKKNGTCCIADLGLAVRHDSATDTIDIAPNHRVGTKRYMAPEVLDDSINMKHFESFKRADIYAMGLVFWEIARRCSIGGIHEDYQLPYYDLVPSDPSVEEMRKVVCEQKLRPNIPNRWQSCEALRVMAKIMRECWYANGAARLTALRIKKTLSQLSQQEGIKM
Protocol: Six ALK kinase enzyme assays were developed for determination of compound activities on ALK1, ALK2, ALK3, ALK4, ALK5 and ALK6.
as §1

ALK3 = ALK3 (Homo sapiens, UniProt P36894); experiment: TR-FRET enzymatic ALK kinase assay, ALK3
Protocol: as §1

ALK6 = ALK6 (Homo sapiens, UniProt O00238); experiment: TR-FRET enzymatic ALK kinase assay, ALK6
Protocol: as §1

ALK2 [3] = target: T3, ALK2 (Homo sapiens, UniProt Q04771); experiment: TR-FRET enzymatic ALK kinase assay, ALK2
T3 sequence (Q04771 21-509): T1 sequence (P37172 21-509) with V1M, Q10P, I121L, E162D, S310P
Protocol: as §1

ALK4 = target: T4, ALK4 (Homo sapiens, UniProt P36896); experiment: TR-FRET enzymatic ALK kinase assay, ALK4
T4 sequence (P36896 24-505): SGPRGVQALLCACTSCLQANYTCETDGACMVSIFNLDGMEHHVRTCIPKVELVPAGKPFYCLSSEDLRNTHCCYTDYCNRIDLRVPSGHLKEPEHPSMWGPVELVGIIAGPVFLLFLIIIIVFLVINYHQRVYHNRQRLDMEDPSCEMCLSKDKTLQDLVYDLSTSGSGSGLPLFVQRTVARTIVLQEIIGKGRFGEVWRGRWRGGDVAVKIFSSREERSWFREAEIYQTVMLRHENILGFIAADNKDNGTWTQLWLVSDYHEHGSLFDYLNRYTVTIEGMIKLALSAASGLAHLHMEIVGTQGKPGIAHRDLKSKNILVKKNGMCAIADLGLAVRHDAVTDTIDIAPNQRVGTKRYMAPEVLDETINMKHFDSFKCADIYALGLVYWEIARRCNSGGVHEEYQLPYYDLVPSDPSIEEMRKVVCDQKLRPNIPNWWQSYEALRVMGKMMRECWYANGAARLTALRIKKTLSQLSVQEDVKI
Protocol: as §1

ALK3, sequence (P36894 24-532): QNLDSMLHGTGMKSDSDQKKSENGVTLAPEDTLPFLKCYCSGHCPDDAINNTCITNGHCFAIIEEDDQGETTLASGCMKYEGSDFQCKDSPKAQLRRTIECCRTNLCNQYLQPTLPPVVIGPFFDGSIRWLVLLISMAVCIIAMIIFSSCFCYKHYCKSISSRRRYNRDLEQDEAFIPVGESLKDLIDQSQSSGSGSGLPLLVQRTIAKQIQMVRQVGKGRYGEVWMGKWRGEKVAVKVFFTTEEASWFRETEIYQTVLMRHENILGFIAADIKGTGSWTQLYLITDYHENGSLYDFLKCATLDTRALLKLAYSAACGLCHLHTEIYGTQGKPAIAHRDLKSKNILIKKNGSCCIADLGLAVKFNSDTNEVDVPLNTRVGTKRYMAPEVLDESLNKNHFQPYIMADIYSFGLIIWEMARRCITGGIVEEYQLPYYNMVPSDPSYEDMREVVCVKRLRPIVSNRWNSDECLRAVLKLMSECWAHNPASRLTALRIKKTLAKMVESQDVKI
ALK1, sequence (P37023 22-503): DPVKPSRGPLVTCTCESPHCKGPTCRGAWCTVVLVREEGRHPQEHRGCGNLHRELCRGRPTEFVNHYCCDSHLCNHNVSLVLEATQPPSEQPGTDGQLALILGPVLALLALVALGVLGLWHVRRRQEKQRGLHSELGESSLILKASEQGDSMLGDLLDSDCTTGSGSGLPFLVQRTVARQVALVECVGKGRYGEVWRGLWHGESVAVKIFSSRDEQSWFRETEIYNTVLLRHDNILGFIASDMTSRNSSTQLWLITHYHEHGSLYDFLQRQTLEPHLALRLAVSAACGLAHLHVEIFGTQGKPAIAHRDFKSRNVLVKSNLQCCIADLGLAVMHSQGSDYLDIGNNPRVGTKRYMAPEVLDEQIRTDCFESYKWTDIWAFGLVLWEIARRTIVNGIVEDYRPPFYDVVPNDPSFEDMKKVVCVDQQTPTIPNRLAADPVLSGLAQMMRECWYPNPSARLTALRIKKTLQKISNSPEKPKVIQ
ALK6, sequence (O00238 14-502): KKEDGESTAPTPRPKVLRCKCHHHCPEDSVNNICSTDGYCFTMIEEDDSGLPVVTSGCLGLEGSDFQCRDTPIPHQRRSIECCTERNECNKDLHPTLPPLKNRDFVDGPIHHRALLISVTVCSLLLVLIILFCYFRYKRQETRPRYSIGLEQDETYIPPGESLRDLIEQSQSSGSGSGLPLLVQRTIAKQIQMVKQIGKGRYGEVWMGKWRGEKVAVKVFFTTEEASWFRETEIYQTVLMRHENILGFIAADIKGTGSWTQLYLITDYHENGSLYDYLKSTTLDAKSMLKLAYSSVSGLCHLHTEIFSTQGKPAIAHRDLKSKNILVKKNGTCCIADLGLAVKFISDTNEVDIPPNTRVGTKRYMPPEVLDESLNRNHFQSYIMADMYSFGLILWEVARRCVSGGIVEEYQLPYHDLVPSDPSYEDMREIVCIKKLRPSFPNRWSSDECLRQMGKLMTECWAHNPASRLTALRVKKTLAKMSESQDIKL

Structure (SMILES)	pIC50 [1]	pIC50 (ALK2 [2])	pIC50 (ALK1)	pIC50 (ALK5)	pIC50 (ALK3)	pIC50 (ALK6)	pIC50 (ALK2 [3])	pIC50 (ALK4)
Fc1ccc(-c2cnn3cc(-c4ccc(CCN5CCCCC5)cc4)cnc23)cc1-c1nnn[nH]1 [Compound 78, 3-(4-fluoro-3-(1H-tetrazol-5-yl)phenyl)-6-(4-(2-(piperidin-1-yl)ethyl)phenyl)pyrazolo[1,5-a]pyrimidine]	4.00	4.15	6.82	< 5.00	6.72	6.62	7.80	< 5.00
C[C@@H]1CNC[C@H](C)N1c1ccc(-c2cnc3c(-c4cc(C#N)cc(S(N)(=O)=O)c4)cnn3c2)cc1 [Compound 79, 3-cyano-5-(6-(4-((2R,6S)-2,6-dimethylpiperazin-1-yl)phenyl)pyrazolo[1,5-a]pyrimidin-3-yl)benzenesulfonamide]	5.00	5.05	5.92	< 5.00	< 5.00	< 5.00	6.72	< 5.00
CN1CCC(c2ccc(-c3cnc4c(-c5ccc(S(N)(=O)=O)c6ccccc56)cnn4c3)cc2)CC1 [Compound 80, 4-(6-(4-(1-methylpiperidin-4-yl)phenyl)pyrazolo[1,5-a]pyrimidin-3-yl)naphthalene-1-sulfonamide]	< 4.00	5.73	6.80	< 5.00	< 5.00	< 5.00	7.46	< 5.00
C[C@@H]1CNC[C@H](C)N1c1ccc(-c2cnc3c(-c4cccc(C(F)(F)F)c4)cnn3c2)cc1 [Compound 81, 6-(4-((2R,6S)-2,6-dimethylpiperazin-1-yl)phenyl)-3-(3-(trifluoromethyl)phenyl)pyrazolo[1,5-a]pyrimidine]	< 4.00	4.56	6.06	< 5.00	< 5.00	< 5.00	6.77	< 5.00
C[C@@H]1CNC[C@H](C)N1c1ccc(-c2cnc3c(-c4ccc(F)c(C#N)c4)cnn3c2)cc1 [Compound 84, 5-(6-(4-((2R,6S)-2,6-dimethylpiperazin-1-yl)phenyl)pyrazolo[1,5-a]pyrimidin-3-yl)-2-fluorobenzonitrile]	5.00	5.68	6.07	< 5.00	< 5.00	< 5.00	6.92	< 5.00
C[C@@H]1CNC[C@H](C)N1c1ccc(-c2cnc3c(-c4ccc(N)c(S(N)(=O)=O)c4)cnn3c2)cc1 [Compound 85, 2-amino-5-(6-(4-((2R,6S)-2,6-dimethylpiperazin-1-yl)phenyl)pyrazolo[1,5-a]pyrimidin-3-yl)benzenesulfonamide]	5.25	6.96	6.92	< 5.00	5.77	< 5.00	7.41	5.14
CS(=O)(=O)c1cccc(-c2cnn3cc(-c4ccc(CCN5CCCCC5)cc4)cnc23)c1 [Compound 86, 3-(3-(methylsulfonyl)phenyl)-6-(4-(2-(piperidin-1-yl)ethyl)phenyl)pyrazolo[1,5-a]pyrimidine]	4.24	6.38	6.77	< 5.00	5.82	< 5.00	7.43	< 5.00
NS(=O)(=O)c1ccc(-c2cnn3cc(-c4ccc(OC5(CN6CCCCC6)COC5)cc4)cnc23)c2ccccc12 [Compound 87, 4-(6-(4-((3-(piperidin-1-ylmethyl)oxetan-3-yl)oxy)phenyl)pyrazolo[1,5-a]pyrimidin-3-yl)naphthalene-1-sulfonamide]	4.52	6.32	7.08	< 5.00	5.74	< 5.00	7.64	< 5.00
c1ccc(-c2cnn3cc(-c4ccc(CCN5CCCCC5)cc4)cnc23)cc1 [Compound 88, 3-phenyl-6-(4-(2-(piperidin-1-yl)ethyl)phenyl)pyrazolo[1,5-a]pyrimidine]	7.24	5.23	5.89	< 5.00	< 5.00	< 5.00	6.38	< 5.00
c1cc(-c2cc[nH]n2)cc(-c2cnn3cc(-c4ccc(CCN5CCCCC5)cc4)cnc23)c1 [Compound 90, 3-(3-(1H-pyrazol-3-yl)phenyl)-6-(4-(2-(piperidin-1-yl)ethyl)phenyl)pyrazolo[1,5-a]pyrimidine]	4.82	6.40	7.17	< 5.00	< 5.00	< 5.00	7.85	6.06
CN1CCC(c2ccc(-c3cnc4c(-c5cccc(S(C)(=O)=O)c5)cnn4c3)cc2)CC1 [Compound 91, 6-(4-(1-methylpiperidin-4-yl)phenyl)-3-(3-(methylsulfonyl)phenyl)pyrazolo[1,5-a]pyrimidine]	4.23	6.75	6.66	< 5.00	5.49	< 5.00	7.28	< 5.00
CN1CCC(c2ccc(-c3cnc4c(-c5cccc(C(C)(C)O)c5)cnn4c3)cc2)CC1 [Compound 92, 2-(3-(6-(4-(1-methylpiperidin-4-yl)phenyl)pyrazolo[1,5-a]pyrimidin-3-yl)phenyl)propan-2-ol]	4.77	6.58	7.04	< 5.00	5.80	< 5.00	7.59	< 5.00
CS(=O)(=O)c1cccc(-c2cnn3cc(-c4ccc(C5CCNCC5)cc4)cnc23)c1 [Compound 94, 3-(3-(methylsulfonyl)phenyl)-6-(4-(piperidin-4-yl)phenyl)pyrazolo[1,5-a]pyrimidine]	5.36	6.37	6.66	< 5.00	5.21	< 5.00	7.28	< 5.00
